In PMC10892375, “Determination of the Cannabinoid CB1 Receptor’s Positive Allosteric Modulator Binding Site through Mutagenesis Studies” (Pharmaceuticals, 2024):

Legend:
Type in all cases: cell-based
[1] = target: T1, WT hCB1 (Homo sapiens, UniProt P21554); experiment: pIRES G protein dissociation BRET assay, WT hCB1
T1 construct: expressed in transfected cells; host or cells: HEK293
Experimental: (§1) Mutagenesis studies using the pIRES G protein dissociation assay were performed using human embryonic kidney 293 (HEK293) wild-type cells transiently transfected with pplss-3HA-hCB1 [31] or modified receptor. All cells were cultured in Dulbecco’s Modified Eagle’s Medium (DMEM) supplemented with 10% fetal bovine serum (FBS), grown in […] vented-cap flasks, and maintained in a 37° C incubator at 5% CO2.
(§2) Dissociation of the G protein heterotrimer, specifically Gαi1, Gβ1, and Gγ2, was investigated using a bioluminescence resonance energy transfer (BRET) assay with the pIRES biosensor first described by and adapted by.
(§3) Briefly, 3 × 10^6 WT HEK293 cells were seeded into 10 cm culture dishes (Corning, Corning, NY, USA; one dish for the control receptor and one for each modified receptor) and incubated at 37 °C for 24 h to gain 50–60% confluency. Culture medium was then replaced and transfection mixtures containing 3 μg pIRES vector and 1 μg receptor (either pplss-hCB1 or modified receptor) were prepared (4 μg total DNA). Plasmids were initially diluted in sterile Milli-Q water before being diluted in OptiMEM reduced serum medium (Thermo Fisher Scientific, Waltham, MA, USA) and combined with […] polyethylenimine (PEI)-max (1:9 DNA:PEI-max ratio) and incubated at room temperature for 20 min. Transfection mixtures were then added to cells via dropwise addition, and cells were incubated at 37 °C for 24 h. Transfected cells were lifted and plated at 50,000 cells/well into poly-d-lysine (PDL; Sigma-Aldrich) coated white 96-well CulturPlates (PerkinElmer, Waltham, MA, USA) and incubated for a further 24 h at 37 °C.
To assay, the culture medium was aspirated and cells were washed with phosphate buffered saline (PBS) and replaced with BRET assay medium (phenol red free DMEM containing 25 mM HEPES and supplemented with 1 mg/mL bovine serum albumin; BSA, MP Biomedicals, Auckland, New Zealand) for 30 min prior to drug addition (serum starve). Drugs were prepared at 10 × concentration in BRET assay medium, combined in a polypropylene V-bottom plate, and incubated at 37° C prior to drug stimulation. Coelenterazine-h (Nanolight Technology, Prolume Ltd, Pinetop, AZ, USA) was prepared at 10 × concentration in BRET assay medium (final concentration 5 μM) and dispensed to cells immediately prior to drug stimulation. Plates were transferred to the LUMIstar Omega plate reader (BMG Labtech GmbH, Ortenburg, BW, Germany) and luminescence (475 and 535 nm) was detected simultaneously in the dark with BRET1 filters for approximately 5 min to establish a baseline BRET ratio. Drugs were added to cells, plates were returned to the LUMIstar and luminescence was detected for a further 25 min. BRET ratios (475/535) were calculated in Omega MARS software v 3.32, exported, and data were analysed using GraphPad Prism v8. Baseline correction was performed using an in-built function in GraphPad Prism, subtracting vehicle BRET ratios from matched conditions. Area under the curve (AUC) analysis was performed in GraphPad Prism using an in-built function to obtain concentration response data.
All data analysis was performed using GraphPad Prism v8. Sigmoidal concentration series were generated by performing AUC analysis and fit using three-parameter nonlinear regression curves. Statistical analyses were performed using data interpolated from nonlinear regression curves using parameters derived from five independent biological replicates. Both one- and two-way repeated measures ANOVA and paired t-tests were used where appropriate (specified in-text), and posthoc tests, specified in text, were performed when significance was reached (p < 0.05). Time course data presented in this manuscript are pooled data (n = 5) and expressed as mean ± SEM. Concentration response data are representative, data expressed as mean ± SD from technical triplicates, to avoid misestimation of parameters from combined/pooled data.

[2] = target: T2, hCB1 mutant Y172A^2.59 (Homo sapiens, UniProt P21554, Y172A); experiment: pIRES G protein dissociation BRET assay, Y172A mutant; conditions: for G protein dissociation, AUC of 10 μM compound (maximal response): 10 μM ligand alone
T2 construct: expressed in transfected cells; host or cells: HEK293
Experimental: as §1
(§4) Mutants of pplss-3HA-hCB1 (WT, pEF-V4-HisA (pEF4a) construct) were generated using a modified QuikChange® (Stratagene, San Diego, CA, USA) site-directed mutagenesis approach using KAPA HiFi Hotstart Polymerase (KAPA Biosystems, Roche, Basel, Switzerland). Briefly, single-stranded primers used to modify one or two base pairs within the target amino acid using PCR were purchased from Integrated DNA Technologies (IDT, Coralville, IA, USA). All pplss-hCB1 mutants were generated using the pplss-3HA-hCB1 pEF4a as parental DNA. PCR products were generated using recommended cycling conditions and treated with Dpn1 (New England Biolabs, Ipswich, MA, USA) overnight at 37° C to digest methylated parental DNA. PCR products were electrophoresed and run on an agarose gel (1% (w.v^−1) agarose, HydraGene, Piscataway, NJ, USA) containing 0.25 μg/mL ethidium bromide (Sigma-Aldrich, St. Louis, MO, USA). Gels were run in 40 mM TRIS-acetate buffer containing […] (pH 8.3) at 100 V for 30 min, maximum current and included a 1kb+ DNA ladder (Invitrogen, Thermo Fisher Scientific, Carlsbad, CA, USA) for reference. Gels were imaged using an UVTech Alliance Q9 Mini transilluminator (UVTech Alliance, Cambridge, UK). Digested products were then used to transform NEB 5α competent E. coli cells in accordance with manufacturer’s instructions. Briefly, transformed PCR products were grown overnight on 8.5 mL Luria Broth agar plates (containing 100 μg/mL ampicillin) at 37° C. Single bacterial colonies were picked and inoculated in Luria Broth (containing 100 μg/mL ampicillin) and grown overnight in a shaking incubator at 37° C. Plasmids were then harvested and purified using a Qiagen miniprep kit (Qiagen, Hilden, Germany) and validated using sequencing (Genetics Analysis Service, University of Otago, Dunedin, New Zealand).
as §2, §3
(§5) To assay, the culture medium was aspirated and cells were washed with phosphate buffered saline (PBS) and replaced with BRET assay medium (phenol red free DMEM containing 25 mM HEPES and supplemented with 1 mg/mL bovine serum albumin; BSA, MP Biomedicals, Auckland, New Zealand) for 30 min prior to drug addition (serum starve). Drugs were prepared at 10 × concentration in BRET assay medium, combined in a polypropylene V-bottom plate, and incubated at 37° C prior to drug stimulation.

[3] = target: T3, hCB1 mutant R148A^12.51 (Homo sapiens, UniProt P21554, R148A); experiment: pIRES G protein dissociation BRET assay, R148A mutant
T3 construct: expressed in transfected cells; host or cells: HEK293
Experimental: as §1, §4, §2, §3, §5

[4] = target: T4, hCB1 mutant F289A^5.53 (Homo sapiens, UniProt P21554, F289A); experiment: pIRES G protein dissociation BRET assay, F289A mutant
T4 construct: expressed in transfected cells; host or cells: HEK293
Experimental: as §1, §4, §2, §3, §5

[5] = target: T5, hCB1 mutant L404A^8.50 (Homo sapiens, UniProt P21554, L404A); experiment: pIRES G protein dissociation BRET assay, L404A mutant; conditions: for G protein dissociation, AUC of 10 μM compound (maximal response): 10 μM ligand alone
T5 construct: expressed in transfected cells; host or cells: HEK293
Experimental: as §1, §4, §2, §3, §5

[6] = 10 μM CP55940 in the presence of 10 μM ZCZ011
[7] = in the presence of 10 μM GAT228
[8] = in the presence of 10 μM GAT229
[9] = top of the curve (maximal response)
[10] = 10 μM allosteric ligand, result in words

T4 sequence (P21554 whole entry F289A): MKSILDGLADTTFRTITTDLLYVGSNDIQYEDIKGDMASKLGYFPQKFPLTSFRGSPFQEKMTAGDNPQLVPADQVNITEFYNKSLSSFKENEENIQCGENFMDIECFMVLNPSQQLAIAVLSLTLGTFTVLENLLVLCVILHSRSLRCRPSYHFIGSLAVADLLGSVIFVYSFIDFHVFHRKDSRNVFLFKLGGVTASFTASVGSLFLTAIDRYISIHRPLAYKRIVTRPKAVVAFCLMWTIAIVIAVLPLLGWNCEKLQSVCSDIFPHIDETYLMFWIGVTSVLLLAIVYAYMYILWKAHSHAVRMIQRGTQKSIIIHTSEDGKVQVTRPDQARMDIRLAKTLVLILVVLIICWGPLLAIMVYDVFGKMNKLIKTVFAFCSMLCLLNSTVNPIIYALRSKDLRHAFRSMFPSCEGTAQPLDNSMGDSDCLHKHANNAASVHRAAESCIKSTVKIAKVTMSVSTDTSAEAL
T2 sequence (P21554 whole entry Y172A): as the sequence (P21554 whole entry F289A) above, with Y172A, A289F counted along it
T5 sequence (P21554 whole entry L404A): as the sequence (P21554 whole entry F289A) above, with A289F, L404A counted along it
T1 sequence (P21554 whole entry): as the sequence (P21554 whole entry F289A) above, with A289F counted along it
T3 sequence (P21554 whole entry R148A): as the sequence (P21554 whole entry F289A) above, with R148A, A289F counted along it

## CCCCCCC(C)(C)c1ccc([C@@H]2C[C@H](O)CC[C@H]2CCCO)c(O)c1 [CP55940]
[1]; [6]
  G protein dissociation, AUC, 10 μM CP55940 + 10 μM ZCZ011: −215.9 ± 2.9
[1]; [7]
  EMAX, CP55940 + 10 μM GAT228: −194.2 ± 7.3 ∆BRET.sec
[1]; [8]
  EMAX, CP55940 + 10 μM GAT229: −205.1 ± 7.8 ∆BRET.sec
[1]; [9]
  EMAX, CP55940 Alone: −184.1 ± 3.8 ∆BRET.sec
[2]; [6]
  G protein dissociation, AUC, 10 μM CP55940 + 10 μM ZCZ011: −305.2 ± 5.7
[2]
  G protein dissociation, AUC of 10 μM compound (maximal response): −284.7 ± 8.4
[2]; [7]
  EMAX, CP55940 + 10 μM GAT228: −298.9 ± 5.4 ∆BRET.sec
[2]; [8]
  EMAX, CP55940 + 10 μM GAT229: −309.0 ± 3.5 ∆BRET.sec
[2]; [9]
  EMAX, CP55940 Alone: −273.2 ± 6.9 ∆BRET.sec
[3]; [6]
  G protein dissociation, AUC, 10 μM CP55940 + 10 μM ZCZ011: −237.3 ± 11.6
[3]; [7]
  EMAX, CP55940 + 10 μM GAT228: −218.2 ± 8.5 ∆BRET.sec
[3]; [8]
  EMAX, CP55940 + 10 μM GAT229: −243.9 ± 5.4 ∆BRET.sec
[3]; [9]
  EMAX, CP55940 Alone: −175.6 ± 11.4 ∆BRET.sec
[4]; [6]
  G protein dissociation, AUC, 10 μM CP55940 + 10 μM ZCZ011: −167.8 ± 6.9
[4]; [7]
  EMAX, CP55940 + 10 μM GAT228: −156.7 ± 5.3 ∆BRET.sec
[4]; [8]
  EMAX, CP55940 + 10 μM GAT229: −161.1 ± 6.5 ∆BRET.sec
[4]; [9]
  EMAX, CP55940 Alone: −145.4 ± 5.7 ∆BRET.sec
[5]; [6]
  G protein dissociation, AUC, 10 μM CP55940 + 10 μM ZCZ011: −133.5 ± 5.6
[5]
  G protein dissociation, AUC of 10 μM compound (maximal response): −110.3 ± 3.7
[5]; [7]
  EMAX, CP55940 + 10 μM GAT228: −115.1 ± 8.3 ∆BRET.sec
[5]; [8]
  EMAX, CP55940 + 10 μM GAT229: −122.3 ± 7.0 ∆BRET.sec
[5]; [9]
  EMAX, CP55940 Alone: −103.1 ± 3.6 ∆BRET.sec

## O=[N+]([O-])C[C@H](c1ccccc1)c1c(-c2ccccc2)[nH]c2ccccc12 [GAT228]
[1]; [10]
  Allosteric modulation of maximal CP55940-induced G protein dissociation: did not alter CP55940-induced G protein dissociation
  Effect on the potency of CP55940-induced G protein dissociation: small but significant decrease in the potency of CP55940
[1]; 10 μM ligand alone
  G protein dissociation, AUC of 10 μM compound (maximal response): −105.7 ± 7.2
[1]; result in words
  Allosteric agonism: G protein dissociation in the absence of an orthosteric ligand: increased wild-type G protein dissociation
[2]; 10 μM allosteric ligand
  Increase in the potency of CP55940-induced G protein dissociation: less than 0.5 log units
[2]
  G protein dissociation, AUC of 10 μM compound (maximal response): −133.4 ± 9.8
[3]; 10 μM allosteric ligand
  Increase in the potency of CP55940-induced G protein dissociation: less than 0.5 log units
[3]; 10 μM ligand alone
  G protein dissociation, AUC of 10 μM compound (maximal response): −102.7 ± 11.8
[4]; 10 μM ligand alone
  G protein dissociation, AUC of 10 μM compound (maximal response): −97.4 ± 7.2
[5]
  G protein dissociation, AUC of 10 μM compound (maximal response): −63.2 ± 5.6
